Experimental data published in US5130117A, “Radiohalogenated benzazepine derivatives and method of imaging dopamine receptors therewith” (Trustees of the University of Pennsylvania, priority 1991, dated 1992).
Entries after “also recorded” stand apart in the source; their conditions may differ. Structures can show the parent of a compound that is named as a salt. Where two headings read alike, the source gives them in different places.

Experiments:
[1] = target: T1, dopamine D-1 receptor (rat striatal membranes) (Rattus norvegicus, UniProt P18901); test: Competition: inhibition of [^125 I]FISCH binding to rat striatal membranes; conditions: for Ki: 0.15-0.30 nM [^125 I]FISCH, rat striatal membranes, three to five determinations, read-out: ki (mean + SEM)
T1 construct: Striatal tissues were excised, pooled and homogenized; from tissue; host or cells: striatum of male Sprague-Dawley rats
Procedure: indicated compounds in 7-11 concentrations and of membrane preparation
from rat striatum. Each value represenets the mean ± SEM of three to
(§1) Male Sprague-Dawley rats (200-250g) were decapitated, and the brains were removed and placed in ice. Striatal tissues were excised, pooled and homogenized in 100 volumes(w/v) of ice-cold Tris-HCl buffer (50 mM), pH 7.4. The homogenates were centrifuged at 20,000×g for 20 min. The resultant pellets were rehomogenized in the same buffer and centrifuged again. The final pellets were resuspended in assay buffer containing: 50 mM Tris buffer pH 7.4, 120 mM NaCl, 5 mM KCl, 2mM CaCl2 and 1 mM MgCl2.
(§2) The binding assays were performed by incubating 50 μl of tissue preparations containing 40-60μg of protein with appropriate amounts of [^125 l]FISCH ligand and competitors in a total volume of 0.2 ml of the assay buffer. After an incubation period of 20 min at 37° C. (with stirring), the samples were rapidly filtered in the cell harvester (Brandel M-24R) under vacuum through Whatman GF/B glass fiber filters pretreated with 0.2% protamine sulfate and washed with 3×5ml of cold (4° C.) 50 mM Tris-HCl buffer, pH 7.4. […] The filters were counted in a gamma counter (Beckman 5500) at an efficiency of 70%.
(§3) Both Scatchard and competition experiments were analyzed using the iterative non-linear least squares curve-fitting program LIGAND.

[2] = target: T2, dopamine D-1 receptor (rat striatal homogenate) (Rattus norvegicus, UniProt P18901); test: Saturation binding of radioiodinated ligand to rat striatal homogenate; conditions: for Kd: specific binding, rat striatal homogenate, racemic mixture; for affinity to rat striatal homogenate / Kd compared with [^125 I]IBZP (R-(+), active form): in words; for Kd compared with [^125 I]IBZP (R-(+), active form): similar conditions
T2 construct: Striatal tissues were excised, pooled and homogenized; from tissue; host or cells: striatum of male Sprague-Dawley rats
Procedure: as §1, §2, §3

[3] = target: T1, dopamine D-1 receptor (rat striatal membranes); test: Competition: inhibition of [^125 I]TISCH binding to rat striatal membranes; conditions: for Ki: [^125 I]TISCH, rat striatal membranes, read-out: ki (mean + SEM)
Procedure: as §1, §2, §3

[4] = Biodistribution in rats of [^125 I]FISCH after iv injection; type: in vivo, male Sprague Dawley rats; conditions: rat; for brain uptake: iv
Procedure: Biodistribution of [^125 l]FISCH was studied in male Sprague Dawley rats (225-300g) which were allowed free access to food and water. While under halothane anesthesia, 0.2 ml of a saline solution containing [^125 l]FISCH was injected directly into the femoral vein, and the rats were sacrificed at various time points post injection by cardiac excision under halothane anesthesia. The organs of interest were removed, weighed and radioactivity was counted using a Beckman gamma automatic counter (Model 4000). The percent dose per organ was calculated by a comparison of the tissue counts to suitably diluted aliquots of the injected material. Total activities of blood and muscle were calculated assuming that they are 7% and 40% of total body weight, respectively.

D-1 dopamine receptors [5] = conditions: rat, in vivo; for striatum/cerebellum (ST/CB) ratio: iv
Procedure: Regional brain distribution in rats was obtained after an iv injection of [^125 l]FISCH. By dissecting, weighing and counting samples from different brain regions (cortex, striatum, hippocampus and cerebellum), % dose/gram of samples was calculated by comparing the sample counts with the counts of the diluted initial dose. The uptake ratio of each region was obtained by dividing % dose/gram of each region with that of the cerebellum.

[6] = target: central D-1 dopamine receptors; conditions: cited from earlier work; for Kd: in vitro binding, rat striatum tissue preparation
[7] = cited from earlier work
D-1 dopamine receptors [8] = conditions: cited from earlier work
D-1 receptors = test: Activity of optically resolved isomers of FISCH; conditions: optical resolution of FISCH isomers
Excerpt: The compounds of this invention can exist as either R- or S- isomers. It is important to note that the aforementioned data were obtained using a racemic mixture of FISCH.

D-1 receptor = conditions: ^11 C label, PET, human brain; cited from earlier work

T1 sequence (P18901 whole entry): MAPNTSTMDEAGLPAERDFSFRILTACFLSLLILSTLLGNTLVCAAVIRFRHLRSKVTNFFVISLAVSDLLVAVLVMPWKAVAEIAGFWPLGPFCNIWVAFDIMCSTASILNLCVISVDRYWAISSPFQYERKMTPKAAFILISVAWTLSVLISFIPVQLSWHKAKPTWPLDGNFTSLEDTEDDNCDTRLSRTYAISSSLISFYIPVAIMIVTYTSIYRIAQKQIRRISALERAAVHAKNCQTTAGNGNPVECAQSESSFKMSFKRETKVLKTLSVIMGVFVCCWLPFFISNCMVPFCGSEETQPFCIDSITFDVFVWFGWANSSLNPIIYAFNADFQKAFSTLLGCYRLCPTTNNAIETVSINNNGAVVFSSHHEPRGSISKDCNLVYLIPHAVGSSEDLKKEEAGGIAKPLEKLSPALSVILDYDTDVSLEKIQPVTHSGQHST
T2 sequence (P18901 whole entry): as above

SMILES: CN1CCc2cc(I)c(O)cc2C(c2ccccc2)C1 (racemic) [(±) IBZP, reference compound]
- Ki [1]: 13.4 ± 0.54 nM

SMILES: CN1CCc2cc(Cl)c(O)cc2C(c2ccc(I)cc2)C1 (racemic) [FISCH, (±)-8-chloro-2,3,4,5-tetrahydro-3-methyl-5-(4'-[^125 I]iodophenyl) -1H-3-benzazepine-7-ol]
- Kd [2]: 1.43 nM
- Ki [1]: 1.71 ± 0.17 nM
- Ki [3]: 2.07 ± 0.35 nM

SMILES: CN1CCc2cc(Cl)c(O)cc2C(c2ccc([125I])cc2)C1 (racemic) [FISCH, (±)-8-chloro-2,3,4,5-tetrahydro-3-methyl-5-(4'-[^125 I]iodophenyl) -1H-3-benzazepine-7-ol]
- nonspecific binding ([2]; at Kd, rat striatum, FIG. 2): approximately 15%
- affinity to rat striatal homogenate [2]: high affinity
- Kd compared with [^125 I]IBZP (R-(+), active form) [2]: comparable
- selectivity for dopamine D-1 receptor ([1]; in words, from Tables 2 and 3): high selectivity
- lung clearance ([4]; fifteen and sixty minutes): rapid clearance
- brain uptake / blood-brain barrier passage ([4]; in words): good brain uptake in rats; also recorded: passes through the blood-brain barrier with ease
- in vivo stability (deiodination) compared with [^125 I]IBZP ([4]; in words): better in vivo stability
- lung uptake ([4]; initial): High initial uptake
- brain uptake ([4]; one hour after injection): 0.55 % dose/organ
- brain uptake ([4]; two minutes after injection): 2.27 % dose/organ
- brain retention compared with [^125 I]IBZP ([4]; one hour post injection): much better
- thyroid uptake ([4]; one hour post injection): 0.04%
- liver uptake ([4]; throughout the first hour): remains high throughout the first hour
- ST/CB ratio, change with time (D-1 dopamine receptors [5]): dramatic increase with time
- striatum/cerebellum (ST/CB) ratio (D-1 dopamine receptors [5]; 2 min): 1.24
- striatum/cerebellum (ST/CB) ratio (D-1 dopamine receptors [5]; 15 min): 1.80
- striatum/cerebellum (ST/CB) ratio (D-1 dopamine receptors [5]; 60 min): 2.47

SMILES: CN1CCc2cc(I)c(O)cc2[C@@H](c2ccccc2)C1 [IBZP]
- Kd [6]: 0.7 nM
- selectivity/specificity for central D-1 dopamine receptors ([6]; in words): high specificity for central D-1 dopamine receptors
- in vivo and in vitro stability ([7]; in words, deiodination): poor in vivo and in vitro stability
- retention time in the brain ([7]; in words): short retention time in the brain
- brain uptake ([7]; rat, iv, 2 minutes post injection): 2.7 %dose/organ
- brain uptake ([7]; rat, iv, 15 minutes post injection): 1.2 %dose/organ
- brain uptake ([7]; rat, iv, 30 minutes post injection): 0.8 %dose/organ
- brain uptake ([7]; rat, iv, 60 minutes (one hour) post injection): 0.26 %dose/organ
- brain localization ([7]; rat, iv): good localization in rat brains
- thyroid uptake ([7]; rat, later time points): high at later time points
- thyroid uptake ([7]; rat, one hour post injection): 0.1%
- blockade of specific uptake regions by pretreatment with SCH-23390 (D-1 dopamine receptors [8]; in vivo autoradiography): can be blocked by pretreatment with SCH-23390
- regional distribution in rat brain (caudate putamen, accumbens nucleus and substantia nigra) (D-1 dopamine receptors [8]; in vivo autoradiography): high uptake
- uptake ratio of striatum/cerebellum (D-1 dopamine receptors [8]; rat, thirty seconds after injection): 1.1
- uptake ratio of striatum/cerebellum (D-1 dopamine receptors [8]; rat, two hours after injection): 5.3
- striatum/cerebellum uptake ratio, change with time (D-1 dopamine receptors [8]; rat): increased with time

SMILES: CN1CCc2cc(Cl)c(O)cc2[C@@H](c2ccc(I)cc2)C1 [R+ isomer]
- activity of isomer (D-1 receptors): active

SMILES: CN1CCc2cc(Cl)c(O)cc2[C@H](c2ccc(I)cc2)C1 [S- isomer]
- activity of isomer (D-1 receptors): inactive

SMILES: CN1CCc2cc(Cl)c(O)cc2[C@@H](c2ccccc2)C1 [SCH-23390, R-(+)-8-chloro-2,3,4,5-tetrahydro-3-methyl5-phenyl-1H-3-benzazepine-7-ol]
- Kd [6]: 0.36 nM
- regional brain concentration (D-1 receptor): highest concentration in the basal ganglia area

SMILES: CN1CCc2ccc(O)cc2[C@@H](c2ccccc2)C1 [SKF-83692]
- Kd [6]: 197 nM

SMILES: CN1CCc2cc(Cl)c(O)cc2C(c2cccc(I)c2)C1 (stereo not drawn) [TISCH]
- affinity to rat striatal homogenate [2]: high affinity
- Kd compared with [^125 I]IBZP (R-(+), active form) [2]: comparable
- Kd [2]: 0.35 nM
- Ki [3]: 0.55 ± 0.05 nM
- selectivity for dopamine D-1 receptor ([3]; in words, from Tables 2 and 3): high selectivity

SMILES: COc1cccc(OC)c1OCCNCC1COc2ccccc2O1 (stereo not drawn) [WB 4101, 2(2,6-dimethoxyphenoxyethyl)-aminomethyl-1,4-benzodioxane hydrochloride, reference compound]
- Ki [1]: 1270 ± 203 nM
